Experimental data: ChEMBL document CHEMBL3045079, “Synthesis, antimalarial and antibacterial activities of 3-amino acid- and aryl amine-substituted 2-methyl-3H-quinalzolin-4-ones” (2010)
Activity calls are given as the source filed them. The rule behind the calls is not given here.

Experiments:
Staphylococcus aureus = test: Antibacterial activity against Staphylococcus aureus at 100 ug after 24 hr by cup-plate method; format: functional, organism-based
Escherichia coli = test: Antibacterial activity against Escherichia coli at 100 ug after 24 hr by cup-plate method; format: functional, organism-based
Plasmodium yoelii [1] = test: Antimalarial activity against Plasmodium yoelii N-67 infected Swiss mouse assessed as parasitemia at 200 mg/kg, ip qd administered 4 days measured on day 7 (reference value: 19.5 +/- 0.76 %); format: functional; details: route intraperitoneal
Plasmodium yoelii [2] = test: Antimalarial activity against Plasmodium yoelii N-67 infected Swiss mouse assessed as mean survival time at 200 mg/kg, ip qd administered 4 days measured 24 hr post last treatment (reference value: 8.2 +/- 0.86 days); format: functional; details: route intraperitoneal
Plasmodium yoelii [3] = test: Antimalarial activity against Plasmodium yoelii N-67 infected Swiss mouse assessed as parasitemia at 200 mg/kg, ip qd administered 4 days measured 24 hr post last treatment (reference value: 12.36 +/- 1.14 %); format: functional; details: route intraperitoneal

Row | SMILES | Activity (Staphylococcus aureus) | Activity (Escherichia coli) | Activity (Plasmodium yoelii [1]) [%] | MST (Plasmodium yoelii [2]) [days] | Activity (Plasmodium yoelii [3]) [%]
1 | Cc1nc2ccccc2c(=O)n1-c1ccc(O)cc1 | inactive | inactive | 16.8 | 6.8 | 10.52
2 | Cc1nc2ccccc2c(=O)n1CC(=O)O | inactive | inactive | 17.2 | 6.6 | 10.5
3 | Cc1nc2ccccc2c(=O)n1-c1ccc([N+](=O)[O-])cc1 | inactive | inactive | 25.5 | 7 | 10.43
4 | Cc1nc2ccccc2c(=O)n1[C@@H](CCCCN)C(=O)O | inactive | inactive | 17.5 | 6.8 | 9.78
5 | Cc1nc2ccccc2c(=O)n1[C@@H](CCC(=O)O)C(=O)O | inactive | inactive | 18.45 | 7.8 | 9.6
6 | Cc1nc2ccccc2c(=O)n1[C@@H](CS)C(=O)O | inactive | inactive | 25 | 7.4 | 11.9
